As usually defined, the GI50 is the concentration at which growth is held to half of that of the control. Lower therefore signals greater sensitivity of the cells. The TGI is the concentration at which net growth stops. Lower therefore signals more potent growth arrest. As usually defined, the IC50 is the concentration that gives 50% inhibition. The low end stands for greater potency in that assay, the high end for weaker potency in that assay. As usually defined, the LC50 is the concentration lethal to half of the exposed cells or organisms. A higher LC50 goes with a less lethal substance.

The subject of one data set is ACHN. As to the kind of experiment: NCI In Vitro Cell Line Screening (SRB). The format is cell-based, human. The note with it: Renal Cancer, 48 h; for GI50 / CC50: Homo sapiens; for CC50: read-out: LC50 (the source's name).
In the next data set the test system is RPMI-8226. As to the kind of experiment: NCI In Vitro Cell Line Screening (SRB). The format is cell-based, human. As to conditions: RPMI-8226, Leukemia, 48 h.
The next data set concerns HS 578T. As to the kind of experiment: NCI In Vitro Cell Line Screening (SRB). As to conditions: Breast Cancer, 48 h; for GI50 / CC50: Homo sapiens; for CC50: read-out: LC50 (the source's name). The format is cell-based, human.
Another data set concerns SF-539. As to the kind of experiment: NCI In Vitro Cell Line Screening (SRB). The format is cell-based, human. As to conditions: SF-539, CNS Cancer, 48 h; for GI50 / CC50: Homo sapiens; for CC50: read-out: LC50 (the source's name).
A further data set concerns A498. As to the kind of experiment: NCI In Vitro Cell Line Screening (SRB). It is filed as cell-based, human. As to conditions: A498, Renal Cancer, 48 h; for GI50 / CC50: Homo sapiens; for CC50: read-out: LC50 (the source's name).
The next data set addresses T1, human polymerase gamma (Homo sapiens, UniProt P54098).
T1 construct: purchased Replizyme Ltd., Heslington, York, UK
T1 sequence (P54098 1-1239): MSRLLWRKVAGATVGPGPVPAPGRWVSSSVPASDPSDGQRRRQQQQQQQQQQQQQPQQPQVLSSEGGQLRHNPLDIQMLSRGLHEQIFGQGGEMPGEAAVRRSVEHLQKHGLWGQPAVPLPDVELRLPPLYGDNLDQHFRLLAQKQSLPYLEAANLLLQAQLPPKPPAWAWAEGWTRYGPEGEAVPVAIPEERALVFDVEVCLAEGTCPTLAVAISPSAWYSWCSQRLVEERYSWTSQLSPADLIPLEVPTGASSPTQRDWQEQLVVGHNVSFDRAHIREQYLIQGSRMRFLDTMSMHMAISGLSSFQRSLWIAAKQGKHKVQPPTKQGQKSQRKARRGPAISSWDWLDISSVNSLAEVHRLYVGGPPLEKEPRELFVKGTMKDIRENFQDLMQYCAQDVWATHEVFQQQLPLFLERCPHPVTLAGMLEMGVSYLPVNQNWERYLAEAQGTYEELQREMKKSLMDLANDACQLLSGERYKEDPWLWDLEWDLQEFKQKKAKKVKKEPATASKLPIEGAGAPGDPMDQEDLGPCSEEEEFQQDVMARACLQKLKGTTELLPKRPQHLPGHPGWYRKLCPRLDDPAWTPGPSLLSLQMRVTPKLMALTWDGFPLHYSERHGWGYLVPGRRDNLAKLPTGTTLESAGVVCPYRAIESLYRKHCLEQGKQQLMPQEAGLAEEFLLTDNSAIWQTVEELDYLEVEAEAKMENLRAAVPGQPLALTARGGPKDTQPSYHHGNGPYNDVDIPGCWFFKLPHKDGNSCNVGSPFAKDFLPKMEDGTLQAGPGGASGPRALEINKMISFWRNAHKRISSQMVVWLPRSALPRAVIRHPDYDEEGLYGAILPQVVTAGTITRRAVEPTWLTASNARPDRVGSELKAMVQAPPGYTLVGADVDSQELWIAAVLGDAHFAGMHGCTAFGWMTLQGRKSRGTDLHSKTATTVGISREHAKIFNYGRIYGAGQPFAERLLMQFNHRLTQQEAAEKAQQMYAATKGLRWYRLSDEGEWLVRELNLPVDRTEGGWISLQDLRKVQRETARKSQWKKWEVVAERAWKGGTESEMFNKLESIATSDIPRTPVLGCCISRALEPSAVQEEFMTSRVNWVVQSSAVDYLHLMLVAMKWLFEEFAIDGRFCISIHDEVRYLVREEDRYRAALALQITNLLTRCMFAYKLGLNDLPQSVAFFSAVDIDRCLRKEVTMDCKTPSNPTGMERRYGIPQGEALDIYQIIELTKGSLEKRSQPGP
As to the kind of experiment: Homotemplate enzymatic assay, polymerase gamma. The format is biochemical. As to conditions: four concentrations, homotemplate format. As to the method: To test for selectivity, an enzymatic assay of activity in human polymerase alpha and human polymerase gamma was performed using a homotemplate assay format (Replizyme Ltd., Heslington, York, UK). The IC50 was measured by testing four different concentrations of a selected compound as compared to an untreated control.

In another data set the test system is LOX IMVI. As to the kind of experiment: NCI In Vitro Cell Line Screening (SRB). The format is cell-based, human. As to conditions: Melanoma, 48 h; for GI50 / LC50: Homo sapiens.
A further data set deals with M14. As to the kind of experiment: NCI In Vitro Cell Line Screening (SRB). It is filed as cell-based, human. As to conditions: M14, Melanoma, 48 h; for GI50 / CC50: Homo sapiens; for CC50: read-out: LC50 (the source's name).
For the next data set, the system named is MDA-MB-231/ATCC. As to the kind of experiment: NCI In Vitro Cell Line Screening (SRB). The format is cell-based, human. The note with it: Breast Cancer, 48 h; for GI50 / CC50: Homo sapiens; for CC50: read-out: LC50 (the source's name).
The test system of a further data set is UACC-62. The experiment in a line: NCI In Vitro Cell Line Screening (SRB). It is filed as cell-based, human. As to conditions: UACC-62, Melanoma, 48 h; for GI50 / CC50: Homo sapiens; for CC50: read-out: LC50 (the source's name).
For the next data set, the system named is HL-60(TB). As to the kind of experiment: NCI In Vitro Cell Line Screening (SRB). It is filed as cell-based, human. As to conditions: Leukemia, 48 h; for GI50: Homo sapiens.
The next data set relates to PC-3. As to the kind of experiment: NCI In Vitro Cell Line Screening (SRB). The format is cell-based, human. As to conditions: PC-3, Prostate Cancer, 48 h; for GI50 / CC50: Homo sapiens; for CC50: read-out: LC50 (the source's name).
Data set [1] can be described thus: Cytotoxicity Huh-7 cells (MTS/PMS). It is filed as cell-based. The note with it: human, 3-day incubation. The protocol:
Cytotoxicity of compounds for use in treating hyperproliferative diseases or disorders was tested in Huh-7 cells using tetrazolium salt MTS combined with the electron acceptor PMS in a 96-well format. Six doses of each compound was tested, starting at about 1.2 μM to 0.4 μM serially diluted in a final 1% DMSO solution in DMEM/F12 media. Terfenadine was used as a positive control. Cells were seeded at 2.5×10^5 cells/mL in each well of the 96-well plates in a final volume of 0.1 mL, and then incubated at 37° C. in the presence of 5% CO2 overnight. Compounds (in media) were added the following day and the treated cells were incubated another 3-days at 37° C. in the presence of 5% CO2. After the 3-day incubation, 20 μL of MTS/PMS (3-(4,5-dimethylthiazol-2-yl)-5-(3-carboxymethoxy-phenyl)-2-(4-sulfophenyl)-2H-tetrazolium) was added to each well. After about a one to four hour incubation of MTS/PMS at 37° C. and 5% CO2—that is, until an OD490 absorbance of ≧0.6 for the wells containing cells with media only, the level of cytotoxicity at each concentration was calculated. […] Dose response results from the cytotoxicity assay (CC50) are provided in Table 4 in comparison with IC50 data (from Table 2)

In the case of `Cc1ccc(NC(=O)[C@@H](CCCCN)NC(=O)Nc2ccc3c(c2)Cc2ccccc2-3)cc1` [Compound 173, (R)-6-AMINO-2-[3-(9H-FLUOREN-2-YL)-UREIDO]-HEXANOIC ACID P-TOLYLAMIDE], the GI50 was determined as 12.2 µM in the data set with ACHN; 1.59 µM with RPMI-8226 (Homo sapiens); 1.64 µM in the data set on HS 578T; 1.92 µM in the data set with SF-539; 1.99 µM with A498; 1.4 µM in the data set on LOX IMVI. Further, the GI50 amounted to 3.43 µM in the data set on M14; 1.26 µM in the data set with MDA-MB-231/ATCC; 1.15 µM in the data set on UACC-62; 1.77 µM with HL-60(TB); 2.78 µM in the data set on PC-3. Also, the CC50 is 54.7 µM with ACHN; > 100 µM in the data set on RPMI-8226 (Homo sapiens, read-out: LC50 (the source's name)); 32.7 µM with HS 578T; 11.9 µM in the data set on SF-539; 37.9 µM with A498; > 100 µM in the data set on M14. In addition, the CC50 with MDA-MB-231/ATCC is 5.24 µM; with UACC-62, 6.52 µM; with PC-3, 44.5 µM. For the same molecule, the TGI in the data set on ACHN is 25.8 µM; with RPMI-8226, 4.87 µM; with HS 578T, 4.77 µM; in the data set on SF-539, 4.48 µM; with A498, 8.26 µM; in the data set with LOX IMVI, 2.70 µM. Moreover, the TGI stood at 11.4 µM in the data set with M14; 2.57 µM with MDA-MB-231/ATCC; 2.74 µM with UACC-62; 3.79 µM in the data set on HL-60(TB); 11.0 µM in the data set with PC-3. On human polymerase gamma, this molecule yielded an IC50 of 16 µM. The LC50 in the data set with LOX IMVI amounted to 5.2 µM.

`CC(C)(C)c1ccc(NC(=O)[C@H](CCCCN)NC(=O)OCC2c3ccccc3-c3ccccc32)cc1` [Compound 105, (S)-[5-AMINO-1-(4-TERT-BUTYL-PHENYLCARBAMOYL)-PENTYL]-CARBAMIC ACID 9H-FLUOREN-9-YLMETHYL ESTER]: the GI50 in the data set on ACHN stood at 15.7 µM; with RPMI-8226 (Homo sapiens), 1.71 µM; with HS 578T it was 2.93 µM; in the data set on SF-539, 1.48 µM; in the data set with A498, 0.116 µM; in the data set on LOX IMVI, 1.81 µM. Moreover, the GI50 in the data set on M14 amounted to 1.77 µM; with MDA-MB-231/ATCC it was 11.1 µM; in the data set with UACC-62 it was 13.7 µM; in the data set with HL-60(TB), 1.54 µM; in the data set with PC-3 it was 1.73 µM. Moreover, the CC50 in the data set on ACHN was 58.5 µM; with HS 578T, 48.7 µM; in the data set on SF-539, 5.63 µM; in the data set with A498, 15.5 µM; in the data set on M14, 6.55 µM; in the data set with MDA-MB-231/ATCC, 64.7 µM. Further, the CC50 in the data set with UACC-62 was determined as 58.2 µM; with PC-3 it was 6.41 µM. Moreover, the TGI in the data set on ACHN amounted to 30.3 µM; in the data set with RPMI-8226 it was 3.78 µM; with HS 578T, 16.7 µM; with SF-539, 2.89 µM; in the data set with A498 it was 0.665 µM; in the data set with LOX IMVI it was 3.41 µM. Moreover, the total growth inhibition concentration (TGI) in the data set with M14 amounted to 3.40 µM; in the data set with MDA-MB-231/ATCC, 26.8 µM; with UACC-62, 28.2 µM; in the data set on HL-60(TB), 3.47 µM; in the data set on PC-3 it was 3.33 µM. This molecule showed an LC50 in the data set with LOX IMVI of 6.42 µM.

In the case of `Cc1cc2cc(NC(=O)[C@H](CCCNC(=O)CN)NC(=O)Nc3ccc4c(c3)Cc3ccccc3-4)ccc2[nH]1` [Compound 297, (S)-5-(2-AMINO-ACETYLAMINO)-2-[3-(9H-FLUOREN-2-YL)-UREIDO]-PENTANOIC ACID (2-METHYL-1H-INDOL-5-YL)-AMIDE], the CC50 at 3 days in data set [1] stood at 9.9 µM. This molecule also registered an IC50 against human polymerase gamma of 13 µM.

As for `Cc1ccc(NC(=O)[C@H](CCCCN)NC(=O)Nc2ccc(OCc3ccccc3)cc2)cc1` [Compound 2, (S)-6-AMINO-2-[3-(4-BENZYLOXY-PHENYL)-UREIDO]-HEXANOIC ACID P-TOLYLAMIDE], the CC50 at 3 days in [1] amounted to 22.2 µM. For the same molecule, 27 µM corresponded to half-maximal inhibition against human polymerase gamma (IC50).

`COC(=O)c1ccc(COc2ccc(NC(=O)N[C@@H](CCCCN)C(=O)Nc3ccc(C)cc3)cc2)cc1` [Compound 199, (S)-4-{4-[3-(5-AMINO-1-P-TOLYLCARBAMOYL-PENTYL)-UREIDO]-PHENOXYMETHYL}-BENZOIC ACID METHYL ESTER] showed a CC50 at 3 days in data set [1] of 53 µM. At human polymerase gamma, this molecule yielded an IC50 of 32 µM.

The values above are taken from patent US20080171783A1, “COMPOSITIONS AND METHODS FOR TREATING HYPERPROLIFERATIVE DISEASE” (Migenix Inc., priority 2006, published 2008).
